Assay results reported in article PMC7616463, “Peptidic boronic acid Plasmodium falciparum SUB1 inhibitors with improved selectivity over human proteasome” (Journal of medicinal chemistry, 2024).
Several values for one entry are separate records, joined by “and”; a condition that tells them apart may be missing. Equal values may be shown once. Read-outs that look alike come from different tables or passages of the source.

Key:
P. falciparum line B11 = test: Parasite growth assay, wild-type B11 line; assay type: cell-based; conditions: Plasmodium falciparum, 96 h, read-out: EC50 parasite growth, B11 line
Excerpt: The DiCre-expressing P. falciparum line B11 (derived from a 3D7 background) has been described in full previously.[45] […] Briefly, the B11 line was first modified by the incorporation into the genomic Pfs47 locus of a cassette for constitutive expression of a TetR-DOZI fusion protein. The 3’ flanking region of the SUB1 gene was then modified by incorporation of 10 Tet repressor-binding aptamers, following by limiting dilution cloning to obtain a genetically homogenous line called 1AC5. […] Complete details of the characterization of this parasite line will be provided in a separate manuscript.
(§1) The effects of test compounds on in vitro growth of the B11 and 1AC5 P. falciparum lines was determined by flow cytometry as described previously.[48] Briefly, synchronous ring-stage parasites at 0.1% parasitaemia and 2% haematocrit were dispensed into flat-bottomed 96-well culture plates (200 ul per well) each containing 1 ul of appropriate serial dilutions of boronic acid or control antimalarial compounds in DMSO. Control wells contained DMSO only. Following incubation in sealed, humidified gassed chambers at 37°C for 96 h to allow the parasites to undergo two entire cycles of erythrocytic growth, cells were fixed, stained with SYBR green and analysed by flow cytometry on a BD FACSVerse™ using BD FACSuite™ software. Data were analysed using FlowJo software. EC50 values and statistical data were determined from dose-response curves generated using GraphPad Prism 10 (GraphPad Software).

[1] = tested on: P. falciparum line 1AC5 (8-10-fold reduced PfSUB1); test: Parasite growth assay, PfSUB1 knock-down 1AC5 line; assay type: cell-based, Plasmodium falciparum; conditions: for EC50: Plasmodium falciparum, 96 h, read-out: EC50 parasite growth, 1AC5 line
Excerpt: The DiCre-expressing P. falciparum line B11 (derived from a 3D7 background) has been described in full previously.[45] To generate a mutant line selectively expressing reduced levels of PfSUB1, we exploited the anhydrotetracycline (aTc)-inducible TetR aptamer system described by Niles and colleagues[46] and subsequently adapted by Rajaram et al.[47] Briefly, the B11 line was first modified by the incorporation into the genomic Pfs47 locus of a cassette for constitutive expression of a TetR-DOZI fusion protein. The 3’ flanking region of the SUB1 gene was then modified by incorporation of 10 Tet repressor-binding aptamers, following by limiting dilution cloning to obtain a genetically homogenous line called 1AC5. […] Complete details of the characterization of this parasite line will be provided in a separate manuscript.
as §1

[2] = molecular target: T1, recombinant PfSUB1 (rPfSUB1) (Plasmodium falciparum, UniProt Q8I0V0); test: PfSUB1 enzyme assay (recombinant PfSUB1, fluorogenic peptide substrate); assay type: biochemical
T1 construct: made in house
T1 sequence (Q8I0V0 218-688): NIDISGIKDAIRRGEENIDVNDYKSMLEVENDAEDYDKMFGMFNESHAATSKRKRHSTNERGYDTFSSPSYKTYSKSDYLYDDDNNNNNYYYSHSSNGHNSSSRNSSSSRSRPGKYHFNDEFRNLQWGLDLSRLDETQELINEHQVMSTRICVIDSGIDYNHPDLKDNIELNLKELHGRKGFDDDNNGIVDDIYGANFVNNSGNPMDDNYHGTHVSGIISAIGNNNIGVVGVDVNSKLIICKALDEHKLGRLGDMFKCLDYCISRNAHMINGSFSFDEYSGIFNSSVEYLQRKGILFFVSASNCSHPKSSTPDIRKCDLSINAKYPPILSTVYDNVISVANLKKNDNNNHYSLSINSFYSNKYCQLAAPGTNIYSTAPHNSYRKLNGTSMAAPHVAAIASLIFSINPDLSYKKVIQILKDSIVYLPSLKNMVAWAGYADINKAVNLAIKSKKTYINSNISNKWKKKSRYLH
Procedure: The proteolytic activity of rPfSUB1 was monitored by the cleavage of the fluorogenic peptidic substrate SERA4st1F-6R12 (Ac-[…]-OH) and has been described previously.[28] Briefly, chymotrypsin treated rPfSUB1 (expressed and purified as described before […] was stored at −80 °C as a 228 U/mL stock in 20 mM Tris−HCl pH 8.2, 150 mM NaCl, 10% glycerol, and diluted for use (1:500) in reaction buffer (20 mM Tris−HCl pH 8.2, 150 mM NaCl, 12 mM CaCl2, 25 mM CHAPS). Peptidic boronic acid inhibitors were dissolved in 100% DMSO at 20 mM, then further diluted in DMSO to generate stock solutions ranging from 500 to 0.01 μM and then used diluted 1:100 in the enzyme reactions. All reactions were performed in wells of white 96-well microwell plates (Nunc); 50 μL diluted rPfSUB1 was preincubated for 5 min with 1 μL each of the serially diluted boronic acid inhibitors, followed by addition of 50 μL substrate solution (0.1 μM final). Subsequent fluorescence increase was continuously monitored using a SpectraMax M5e plate reader and SoftMax Pro-6.3 software, with readings taken every 3 min for 60 min using excitation and emission values of 552 and 580 nm, respectively. […] All experiments were performed in duplicate.

[3] = tested on: human 20S proteasome (H20S), chymotrypsin-like β5 activity; test: Human 20S proteasome kinetic assay (chymotrypsin-like β5 activity); assay type: biochemical; conditions: PfSUB1 vs H20S inhibition
Procedure: (§2) The fluorescent Proteasome substrate LLVY-R110 (ex: 490 nm, Em:525 nm) (#MAK172, Sigma-Aldrich) was used to measure the chymotrypsin-like activity (β5) of the human 20S proteasome and was prepared according to the activity assay kit instructions. Cleavage of this peptide generated intense green fluorescence due to the R110 group and was monitored at 520-530 nm with excitation at 480-500 nm. The purified human 20S proteasome (BML-PW8720-0050, EnzoSciences), stored at 1mg/ml in 20 mM Tris-HCl pH 7.2, 1mM EDTA, 1mM DTT 1mM NaN3, 50% glycerol was diluted in TRIS-buffered saline (TBS, pH 7.4) to an intermediate concentration of 0.44 μM. […] The reactions were performed in white 96-well fluorescent microtiter-plate format (Nunc). The Substrate solution was added first (100 μl), followed by 1 μl of the inhibitor (50 μM intermediate stock) and 1 μl of the H20S proteasome at 0.44 μM. The IC50s were determined for a selection of potent PfSUB1 inhibitors. After sequential dilution of the inhibitors in 100% DMSO, 1 μl of each dilution was used in a 100 μl reaction containing the fluorescent substrate. The reaction was initiated by the addition of 1 μl of the 20S proteasome intermediate stock solution. The fluorescence increase was monitored using a SpectraMax M5e plate reader and SoftMax Pro-6.3 software Measure activity on a plate reader (ex: 490 nm, Em: 525 nm) with the photomultiplier tube (PMT) set to medium with readings every 3 min for one hour. All measurements were done in duplicate. The progress curves were plotted within GraphPad Prism 9.5.0.

HepG2 cells = test: Mammalian cell cytotoxicity assay (resazurin); assay type: cell-based; conditions: for CC50 (concentration that reduced cell viability by 50%): HepG2, 48 h treatment, resazurin, triplicate, tested up to 30 μM (1a), 200 μM (4c), 150 μM (tipifarnib)
Procedure: HepG2 cells were cultured in Dulbecco’s Modified Eagle Medium with F12 GlutaMAX (DMEM/F12 GlutaMAX) (Gibco) supplemented with 10% (v/v) heat-inactivated foetal calf serum (FCS), 1% L-glutamine and 1% penicillin-streptomycin (10,000 U/ml), and maintained in a humidified 5% CO2 incubator at 37°C. The culture medium was changed every 2-3 days and cells were passaged when a confluency of 75-80% was reached. At passage 2 or above, HepG2 cells were harvested using 0.25% trypsin-0.53 mM EDTA (Gibco). Cell counts and cell viability were determined by an automated cell counting machine (vi-CELL, Beckman) and seeded at a density of 1x10^4-5x10^5 cells per well in a transparent flat-bottom 96-well plate (Corning), and maintained in a humidified 5% CO2 incubator at 37°C. […] As a vehicle control, 1% DMSO was used. After 48 hs, media was removed and replaced with 100 μl media containing 10% resazurin solution (Invitrogen) and incubated for 4 h at 37°C in 5% CO2. After 4 h, the solution was transferred to an opaque 96-well plate (Corning) to measure reduction of resazurin to resorufin using a SpectraMax M5 microplate reader (Molecular Devices LLC) (ex. 560 nm, em. 590 nm). Cells without treatment compounds were used to determine 100% viability. Cell viability was determined by measuring fluorescence as a % of solvent control. Concentration viability response curves, CC50 values, mean CC50 value and standard error were generated using GraphPad Prism 10 (GraphPad Software).

[4] = molecular target: T2, human 20S proteasome (H20S), chymotrypsin-like β5 activity (Homo sapiens, UniProt P20618+P28074); test: Human 20S proteasome kinetic assay (chymotrypsin-like β5 activity); assay type: biochemical; conditions: purified human 20S proteasome, β5 activity, substrate LLVY-R110, fluorescence; duplicate; read-out: IC50, nM H20S inhibition
T2 construct: variant as stated: H20S
Procedure: as §2

[5] = 2 erythrocytic cycles, SYBR green flow cytometry, triplicate, 95% confidence interval in parentheses

## CCN(CC)CCCC(C)Nc1ccnc2cc(Cl)ccc12 (stereo not shown) [CQ, chloroquine, reference compound]
P. falciparum line B11
  EC50: 5.36 nM
[1]
  EC50: 5.74 nM

## CC[C@H](C)[C@H](NC(=O)[C@@H](NC(=O)c1cc(C)cc(C)c1)C1CCCC1)C(=O)NCC(=O)N[C@H]1CCC(=O)OB1O [4c, N-((S)-1-cyclopentyl-2-(((2S,3S)-1-((2-(((R)-2-hydroxy-6-oxo-1,2-oxaborinan-3-yl)amino)-2-oxoethyl)amino)-3-methyl-1-oxopentan-2-yl)amino)-2-oxoethyl)-3,5-dimethylbenzamide]
[2]
  IC50: 15.3 ± 0.1 nM
[3]
  selectivity versus H20S: > 60 fold
P. falciparum line B11; [5]
  EC50: 2260 nM
[1]
  EC50: 160 nM
[1]; growth inhibition, 1AC5 vs wild-type B11
  fold higher sensitivity of 1AC5 line than of B11 line: 13 fold and ~ 13 fold
HepG2 cells
  CC50 (concentration that reduced cell viability by 50%): 296000 nM
HepG2 cells; HepG2 CC50 of 4c vs 1a
  factor by which less toxic to HepG2 than 1a: 27 fold

## C[C@H]1[C@H](OC(=O)CCC(=O)O)O[C@@H]2O[C@@]3(C)CC[C@H]4[C@H](C)CC[C@@H]1[C@@]24OO3 [Artesunate, artesunate, reference compound]
P. falciparum line B11; [5]
  EC50: 3.7 nM
[1]
  EC50: 4.87 nM

## CC(=O)N[C@H](C(=O)N[C@H](C(=O)NCC(=O)N[C@@H](C)B(O)O)C(C)C)C1CCCC1 [1a]
[4]
  IC50: 32.8 ± 1.7 nM
P. falciparum line B11; [5]
  EC50: 150 nM
[1]
  EC50: 130 nM
HepG2 cells
  CC50 (concentration that reduced cell viability by 50%): 11000 nM

## Cn1cncc1[C@@](N)(c1ccc(Cl)cc1)c1ccc2c(c1)c(-c1cccc(Cl)c1)cc(=O)n2C [Tipifarnib, reference compound]
HepG2 cells
  CC50 (concentration that reduced cell viability by 50%): 30000 nM
